Experiment: xn = mol fraction of the nth substance listed
Details: Liquid, Vibrating tube method

CCCCCCC [heptane] + O=C=O
Details | mass density [kg/m3]
322.91 K, 22022 kPa, x2 = 0.7514 | 759.49
322.91 K, 23010 kPa, x2 = 0.7514 | 762.14
322.91 K, 23983 kPa, x2 = 0.7514 | 764.78
322.91 K, 24907 kPa, x2 = 0.7514 | 767.21
322.94 K, 3016 kPa, x2 = 0.0218 | 663.11
322.94 K, 4008 kPa, x2 = 0.0218 | 664.28
322.94 K, 5006 kPa, x2 = 0.0218 | 665.41
322.94 K, 5006 kPa, x2 = 0.5085 | 691.2
322.94 K, 6002 kPa, x2 = 0.0218 | 666.44
322.94 K, 6004 kPa, x2 = 0.5085 | 693.82
322.94 K, 7003 kPa, x2 = 0.0218 | 667.61
322.94 K, 7005 kPa, x2 = 0.5085 | 696.6
322.94 K, 8006 kPa, x2 = 0.0218 | 668.67
322.94 K, 8009 kPa, x2 = 0.5085 | 698.81
322.94 K, 8995 kPa, x2 = 0.0218 | 669.76
322.94 K, 9010 kPa, x2 = 0.5085 | 701.04
322.94 K, 10002 kPa, x2 = 0.0218 | 670.79
322.94 K, 10006 kPa, x2 = 0.5085 | 703.24
322.94 K, 10997 kPa, x2 = 0.5085 | 705.29
322.94 K, 11002 kPa, x2 = 0.0218 | 671.78
322.94 K, 11999 kPa, x2 = 0.0218 | 672.82
322.94 K, 12001 kPa, x2 = 0.5085 | 707.34
322.94 K, 12998 kPa, x2 = 0.5085 | 709.37
322.94 K, 13000 kPa, x2 = 0.0218 | 673.79
322.94 K, 14001 kPa, x2 = 0.0218 | 674.79
322.94 K, 14004 kPa, x2 = 0.5085 | 711.26
322.94 K, 15002 kPa, x2 = 0.0218 | 675.77
322.94 K, 15009 kPa, x2 = 0.5085 | 713.17
322.94 K, 15998 kPa, x2 = 0.0218 | 676.69
322.94 K, 16004 kPa, x2 = 0.5085 | 715.02
322.94 K, 17002 kPa, x2 = 0.0218 | 677.65
322.94 K, 17009 kPa, x2 = 0.5085 | 716.84
322.94 K, 18003 kPa, x2 = 0.0218 | 678.53
322.94 K, 18003 kPa, x2 = 0.5085 | 718.61
322.94 K, 18995 kPa, x2 = 0.0218 | 679.45
322.94 K, 19009 kPa, x2 = 0.5085 | 720.34
322.94 K, 20004 kPa, x2 = 0.5085 | 722.03
322.94 K, 20009 kPa, x2 = 0.0218 | 680.41
322.94 K, 20999 kPa, x2 = 0.0218 | 681.28
322.94 K, 21007 kPa, x2 = 0.5085 | 723.66
322.94 K, 21995 kPa, x2 = 0.5085 | 725.31
322.94 K, 22005 kPa, x2 = 0.0218 | 682.14
322.94 K, 23002 kPa, x2 = 0.5085 | 726.96
322.94 K, 23011 kPa, x2 = 0.0218 | 683.03
322.94 K, 24002 kPa, x2 = 0.5085 | 728.57
322.94 K, 24009 kPa, x2 = 0.0218 | 683.94
322.94 K, 24961 kPa, x2 = 0.0218 | 684.87
322.94 K, 25011 kPa, x2 = 0.5085 | 730.19
322.96 K, 12028 kPa, x2 = 0.9496 | 666.43
322.96 K, 13010 kPa, x2 = 0.9496 | 691.64
322.96 K, 13994 kPa, x2 = 0.9496 | 711.79
322.96 K, 14997 kPa, x2 = 0.9496 | 728.42
322.96 K, 16006 kPa, x2 = 0.9496 | 742.98
322.96 K, 17008 kPa, x2 = 0.9496 | 755.69
322.96 K, 17999 kPa, x2 = 0.9496 | 766.84
322.96 K, 19001 kPa, x2 = 0.9496 | 777.08
322.96 K, 20001 kPa, x2 = 0.9496 | 786.26
322.96 K, 20994 kPa, x2 = 0.9496 | 794.84
322.96 K, 21997 kPa, x2 = 0.9496 | 802.85
322.96 K, 23019 kPa, x2 = 0.9496 | 810.46
322.96 K, 23997 kPa, x2 = 0.9496 | 817.33
322.96 K, 24395 kPa, x2 = 0.9496 | 820.02
332.7 K, 12055 kPa, x2 = 0.9496 | 554.72
332.7 K, 13001 kPa, x2 = 0.9496 | 599.39
332.7 K, 14003 kPa, x2 = 0.9496 | 633.33
332.7 K, 14995 kPa, x2 = 0.9496 | 659.11
332.7 K, 16003 kPa, x2 = 0.9496 | 680.52
332.7 K, 16980 kPa, x2 = 0.9496 | 697.86
332.7 K, 18002 kPa, x2 = 0.9496 | 713.39
332.7 K, 19004 kPa, x2 = 0.9496 | 727.03
332.7 K, 19979 kPa, x2 = 0.9496 | 738.9
332.7 K, 20995 kPa, x2 = 0.9496 | 749.98
332.7 K, 22006 kPa, x2 = 0.9496 | 760
332.7 K, 23011 kPa, x2 = 0.9496 | 769.32
332.7 K, 24046 kPa, x2 = 0.9496 | 778.17
332.7 K, 24505 kPa, x2 = 0.9496 | 781.98
332.72 K, 5013 kPa, x2 = 0.3148 | 672.27
332.72 K, 6004 kPa, x2 = 0.3148 | 673.82
332.72 K, 7000 kPa, x2 = 0.3148 | 675.27
332.72 K, 8008 kPa, x2 = 0.3148 | 676.79
332.72 K, 9003 kPa, x2 = 0.3148 | 678.48
332.72 K, 10007 kPa, x2 = 0.3148 | 680.17
332.72 K, 11008 kPa, x2 = 0.3148 | 681.84
332.72 K, 11995 kPa, x2 = 0.3148 | 683.4
332.72 K, 12994 kPa, x2 = 0.3148 | 684.97
332.72 K, 14002 kPa, x2 = 0.3148 | 686.5
332.72 K, 15009 kPa, x2 = 0.3148 | 688.01
332.72 K, 16005 kPa, x2 = 0.3148 | 689.47
332.72 K, 16994 kPa, x2 = 0.3148 | 690.88
332.72 K, 17996 kPa, x2 = 0.3148 | 692.28
332.72 K, 19002 kPa, x2 = 0.3148 | 693.66
332.72 K, 20001 kPa, x2 = 0.3148 | 695.02
332.72 K, 21004 kPa, x2 = 0.3148 | 696.34
332.72 K, 22014 kPa, x2 = 0.3148 | 697.64
332.72 K, 22998 kPa, x2 = 0.3148 | 698.95
332.72 K, 24000 kPa, x2 = 0.3148 | 700.22
332.72 K, 25010 kPa, x2 = 0.3148 | 701.53
332.73 K, 9976 kPa, x2 = 0.7514 | 687.42
332.73 K, 11027 kPa, x2 = 0.7514 | 694.77
332.73 K, 12005 kPa, x2 = 0.7514 | 701.07
332.73 K, 13004 kPa, x2 = 0.7514 | 706.72
332.73 K, 14002 kPa, x2 = 0.7514 | 712.07
332.73 K, 15007 kPa, x2 = 0.7514 | 716.96
332.73 K, 16008 kPa, x2 = 0.7514 | 721.73
332.73 K, 17006 kPa, x2 = 0.7514 | 726.16
332.73 K, 17992 kPa, x2 = 0.7514 | 730.25
332.73 K, 19005 kPa, x2 = 0.7514 | 734.18
332.73 K, 19992 kPa, x2 = 0.7514 | 737.97
332.73 K, 21048 kPa, x2 = 0.7514 | 741.67
332.73 K, 21991 kPa, x2 = 0.7514 | 745.02
332.73 K, 22997 kPa, x2 = 0.7514 | 748.43
332.73 K, 23997 kPa, x2 = 0.7514 | 751.86
332.73 K, 24860 kPa, x2 = 0.7514 | 754.69
332.8 K, 3011 kPa, x2 = 0.0218 | 654.41
332.8 K, 4004 kPa, x2 = 0.0218 | 655.67
332.8 K, 5003 kPa, x2 = 0.0218 | 656.85
332.8 K, 6000 kPa, x2 = 0.0218 | 658.03
332.8 K, 7004 kPa, x2 = 0.0218 | 659.2
332.8 K, 8007 kPa, x2 = 0.0218 | 660.37
332.8 K, 9001 kPa, x2 = 0.0218 | 661.51
332.8 K, 10004 kPa, x2 = 0.0218 | 662.62
332.8 K, 10998 kPa, x2 = 0.0218 | 663.71
332.8 K, 12002 kPa, x2 = 0.0218 | 664.82
332.8 K, 12996 kPa, x2 = 0.0218 | 665.83
332.8 K, 13999 kPa, x2 = 0.0218 | 666.94
332.8 K, 15004 kPa, x2 = 0.0218 | 667.94
332.8 K, 16005 kPa, x2 = 0.0218 | 668.95
332.8 K, 16998 kPa, x2 = 0.0218 | 669.95
332.8 K, 18005 kPa, x2 = 0.0218 | 670.91
332.8 K, 19003 kPa, x2 = 0.0218 | 671.91
332.8 K, 20002 kPa, x2 = 0.0218 | 672.83
332.8 K, 21008 kPa, x2 = 0.0218 | 673.8
332.8 K, 21997 kPa, x2 = 0.0218 | 674.76
332.8 K, 22998 kPa, x2 = 0.0218 | 675.69
332.8 K, 24009 kPa, x2 = 0.0218 | 676.63
